Molecular target: T1, CIC-1 ion channel (Rattus norvegicus, UniProt P35524)
T1 construct: from tissue; host or cells: whole soleus muscle of 12-14 week old Wistar rats
T1 sequence (P35524 1-994): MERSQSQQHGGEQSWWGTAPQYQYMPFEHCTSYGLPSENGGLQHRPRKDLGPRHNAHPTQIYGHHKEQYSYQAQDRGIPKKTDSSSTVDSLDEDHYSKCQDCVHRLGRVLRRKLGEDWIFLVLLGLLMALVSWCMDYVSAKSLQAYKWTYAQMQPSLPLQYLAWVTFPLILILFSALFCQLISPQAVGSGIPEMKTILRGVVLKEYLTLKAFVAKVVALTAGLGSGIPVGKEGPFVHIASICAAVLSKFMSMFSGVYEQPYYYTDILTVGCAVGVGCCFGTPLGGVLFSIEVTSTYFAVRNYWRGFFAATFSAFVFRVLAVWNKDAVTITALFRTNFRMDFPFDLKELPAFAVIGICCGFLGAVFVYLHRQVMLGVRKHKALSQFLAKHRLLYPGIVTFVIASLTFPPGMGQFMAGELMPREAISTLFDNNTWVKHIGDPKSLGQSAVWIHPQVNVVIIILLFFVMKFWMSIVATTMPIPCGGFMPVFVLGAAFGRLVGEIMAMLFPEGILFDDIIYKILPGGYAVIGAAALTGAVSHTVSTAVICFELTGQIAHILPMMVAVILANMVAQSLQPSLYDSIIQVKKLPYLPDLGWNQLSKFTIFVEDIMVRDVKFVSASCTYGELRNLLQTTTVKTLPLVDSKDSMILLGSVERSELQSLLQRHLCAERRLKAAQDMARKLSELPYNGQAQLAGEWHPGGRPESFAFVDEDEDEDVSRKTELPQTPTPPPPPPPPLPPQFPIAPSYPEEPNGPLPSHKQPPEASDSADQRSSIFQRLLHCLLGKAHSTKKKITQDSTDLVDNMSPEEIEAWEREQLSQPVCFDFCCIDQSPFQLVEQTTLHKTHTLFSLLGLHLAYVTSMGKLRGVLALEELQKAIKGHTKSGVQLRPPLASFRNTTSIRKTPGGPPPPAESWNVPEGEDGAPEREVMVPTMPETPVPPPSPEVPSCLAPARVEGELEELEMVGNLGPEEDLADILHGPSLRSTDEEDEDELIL
Assay: Electrophysiological measurement of compound inhibition of CIC-1 in rat muscle (Gm in soleus fibres, three micro-electrodes)
Format: cell-based
Conditions: Gm in individual fibres of whole rat soleus muscles, approx. 30° C., four increasing compound concentrations; read-out: Potency Range (EC50, inhibition of CIC-1 ion channel)
Experimental: Apparent CIC-1 affinity was reported by the concentration of compound at which 50% of the compound's full inhibition of CIC-1 was observed (EC50) (see also WO2019/115777).
Experimentally, Gm was measured in individual fibres of whole rat soleus muscles using a three micro-electrodes technique described in this example and in full detail elsewhere (Riisager et al., Determination of cable parameters in skeletal muscle fibres during repetitive firing of action potentials. Journal of Physiology, 2014, 592, 4417-4429). Briefly, intact rat soleus muscles were dissected out from 12-14 week old Wistar rats and placed in an experimental chamber that was perfused with a standard Krebs Ringer solution containing 122 mM NaCl, 25 mM NaHCO3, 2.8 mM KCl, 1.2 mM KH2PO4, 1.2 mM MgSO4, 1.3 mM CaCl2, 5.0 mM D-glucose. During experiments, the solution was kept at approx. 30° C. and continuously equilibrated with a mixture of 95% O2 and 5% CO2, pH ~7.4. The experimental chamber was placed in Nikon upright microscope that was used to visualize individual muscle fibres and the three electrodes (glass pipettes filled with 2 M potassium citrate). For Gm measurements, the electrodes were inserted into the same fibre with known inter-electrode distances of 0.35-0.5 mm (V1-V2, X1) and 1.1-1.5 mm (V1-V3, X3). The membrane potential of the impaled muscle fibre was recorded by all electrodes. Two of the electrodes were furthermore used to inject 50 ms current pulses of −30 nA. […] The steady state voltage deflection at each distance was divided by the magnitude of current injected (−30 nA) and the resulting transfer resistances were plotted against inter-electrode distance and the data was fitted to a mono-exponential function from which Gm could be calculated using linear cable theory.
To establish a dose response relationship, Gm was first determined in 10 muscle fibres in the absence of compound and then at four increasing compound concentrations with Gm determinations in 5-10 fibres at each concentration. The average Gm values at each concentration were plotted against compound concentration and the data was fitted to sigmoidal function to obtain an EC5o value.

EC50 [nM] | SMILES
2000 to 10000 | Cc1cc2c(c(C(=O)O)c1F)OCCC2 [Compound A-50, 7-fluoro-6-methyl-3,4-dihydro-2H-1-benzopyran-8-carboxylic acid]
2000 to 10000 | CCc1cc2c(c(C(=O)O)c1F)CCCC2 [Compound A-51, 3-Ethyl-2-fluoro-5,6,7,8-tetrahydronaphthalene-1-carboxylic acid]
200 to 2000 | O=C(O)c1c(Cl)c(F)cc2c1N(Cc1ccccc1)CCC2 [Compound A-74, 1-Benzyl-7-chloro-6-fluoro-1,2,3,4-tetrahydro-8-quinolinecarboxylic acid]
200 to 2000 | O=C(O)c1c(F)c(Cl)cc2c1SCCC2 [Compound A-38, 6-Chloro-7-fluoro-3,4-dihydro-2H-1-benzothiopyran-8-carboxylic acid]
2000 to 10000 | Cc1c(F)cc2c(c1C(=O)O)CCCC2 [Compound A-52, 3-Fluoro-2-methyl-5,6,7,8-tetrahydronaphthalene-1-carboxylic acid]
200 to 2000 | CN1CCCc2cc(Cl)c(F)c(C(=O)O)c21 [Compound A-40, 6-Chloro-7-fluoro-1-methyl-1,2,3,4-tetrahydroquinoline-8-carboxylic acid]
200 to 2000 | O=C(O)c1c(F)c(Cl)cc2c1CCCS2 [Compound A-65, 7-chloro-6-fluoro-3,4-dihydro-2H-1-benzothiopyran-5-carboxylic acid]
2000 to 10000 | O=C(O)c1c(F)c(Cl)cc2c1NCCC2 [Compound A-41, 6-Chloro-7-fluoro-1,2,3,4-tetrahydroquinoline-8-carboxylic acid]
200 to 2000 | O=C(O)c1c(F)c(Cl)cc2c1N(Cc1ccccc1)CCC2 [Compound A-71, 1-Benzyl-6-chloro-7-fluoro-1,2,3,4-tetrahydro-8-quinolinecarboxylic acid]
10000 to 20000 | O=C(O)c1c(F)c(F)cc2c1SCCC2 [Compound A-42, 6,7-difluoro-3,4-dihydro-2H-1-benzothiopyran-8-carboxylic acid]
200 to 2000 | COc1c(Cl)cc2c(c1C(=O)O)CCCC2(F)F [Compound A-73, 3-Chloro-5,5-difluoro-2-methoxy-5,6,7,8-tetrahydro-1-naphthoic acid]
200 to 2000 | Cc1cc2c(c(C(=O)O)c1F)CCCC2 [Compound A-49, 2-Fluoro-3-methyl-5,6,7,8-tetrahydronaphthalene-1-carboxylic acid]

More lines, now with the values behind:

SMILES | EC50 [nM]
O=C(O)c1c(F)c(Cl)cc2c1OCCC2 [Compound A-36, 6-Chloro-7-fluoro-3,4-dihydro-2H-1-benzopyran-8-carboxylic acid] | 2000 to 10000
O=C(O)c1cc(Cl)cc2c1CCCC2 [Compound A-3, 3-chloro-5,6,7,8-tetrahydronaphthalene-1-carboxylic acid] | 2000 to 10000
COc1c(Cl)cc2c(c1C(=O)O)SCCC2 [Compound A-31, 6-chloro-7-methoxy-3,4-dihydro-2H-1-benzothiopyran-8-carboxylic acid] | 200 to 2000
CSc1c(Cl)cc2c(c1C(=O)O)CCC2 [Compound A-23, 6-Chloro-5-(methylsulfanyl)-2,3-dihydro-1H-indene-4-carboxylic acid] | 2000 to 10000
COc1c(Cl)cc2c(c1C(=O)O)C1CCC2C1 (stereo not shown) [Compound A-16, 5-Chloro-4-methoxytricyclo[6.2.1.0^2,7]undeca-2(7),3,5-triene-3-carboxylic acid] | 200 to 2000
O=C(O)c1c2c(cc(Cl)c1OC(F)F)CCCC2 [Compound A-25, 3-Chloro-2-(difluoromethoxy)-5,6,7,8-tetrahydronaphthalene-1-carboxylic acid] | 200 to 2000
Cc1c(Cl)cc2c(c1C(=O)O)OCCC2 [Compound A-14, 6-Chloro-7-methyl-3,4-dihydro-2H-1-benzopyran-8-carboxylic acid] | 10000 to 20000
COc1c(Cl)cc2c(c1C(=O)O)CCCCC2 [Compound A-22, 3-Chloro-2-methoxy-6,7,8,9-tetrahydro-5H-benzo[7]annulene-1-carboxylic acid] | 200 to 2000
COc1c(Cl)cc2c(c1C(=O)O)C1CCC2CC1 [Compound A-29, 5-Chloro-4-methoxytricyclo[6.2.2.0^2,7]dodeca-2,4,6-triene-3-carboxylic acid] | 2000 to 10000
C=Cc1c(Cl)cc2c(c1C(=O)O)CCCC2 [Compound A-35, 3-Chloro-2-ethenyl-5,6,7,8-tetrahydronaphthalene-1-carboxylic acid] | 200 to 2000

Tested on: isolated rat soleus nerve-muscle preparations
Assay: Measurement of force in an in vitro model: recovery of nerve-stimulated contractile force after tubocurarine
Conditions: 40 min, 10 μM of test compound, after 40 mins of compound exposure, tubocurarine (115 nM) for 90 minutes, read-out: Point increase (%): percentage increase of initial force that was restored
Experimental: In one aspect, the invention relates to a method for recovery of force in muscles with neuromuscular dysfunction, said method comprising administering a compound or a composition as defined herein to a subject in need thereof. The term “recovery of force in muscles with neuromuscular dysfunction” as used herein refers to the ability of a compound to recover contractile force in nerve-stimulated healthy rat muscle after exposure to submaximal concentration (115 nM) of tubocurarine for 90 minutes.
Recovery of force is quantified as the percentage of the force prior to tubocurarine that is recovered after addition of the compound. In one embodiment, said recovery of force is >5%, such as >10%, such as >15%, such as >20%, such as >25%, such as >30%, such as >35%.
The current disclosure relates to compounds that inhibit CIC-1 ion channels and increase muscle excitability and thereby improve muscle function in clinical conditions where muscle activation is failing. Such conditions result in loss of contractile function of skeletal muscle, weakness and excessive fatigue. In this series of experiments the compounds were tested for their ability to restore contractile function of isolated rat muscle when the neuromuscular transmission had been compromised akin to neuromuscular disorders.
Experimentally, soleus muscles from 4-5 week old rats were isolated with the motor nerve remaining attached. The nerve-muscle preparations were mounted in experimental setups that enabled electrical stimulation of the motor nerve. Stimulation of the motor nerve led to activation of the muscle fibres and ensuing force production that was recorded. The nerve-muscle preparations were also in these experiments incubated in the standard Krebs Ringer (see example 15) and the solution was heated to 30° C. and continuously equilibrated with a mixture of 95% O2 and 5% CO2, pH ~7.4.
After mounting the nerve-muscle preparation in the experimental setup, the contractile function of the muscle was initially assessed under the control conditions. Sub-maximal concentration of tubocurarine (115 nM), an acetylcholine receptor antagonist, was then added to the experimental bath to impose partial inhibition of the ability of the motor nerve to activate the muscle fibres. The experimental condition mimics the failing neuromuscular transmission in a range of neuromuscular disorders. After addition of tubocurarine the contractile force declined over the next 90 minutes to 10-50% of the control force. The test compound was then added to obtain the required compound concentration in the bath and the contractile force recovered was measured. To quantify the ability of the compound to restore force the percentage of the initial force that was restored was determined after 40 mins of compound exposure and the point increase is reported in Tables 3 to 7.

SMILES | activation at 10 µM [%]
O=C(O)c1c(F)c(Cl)cc2c1OCCC2 [Compound A-36, 6-Chloro-7-fluoro-3,4-dihydro-2H-1-benzopyran-8-carboxylic acid] | 43
O=C(O)c1cc(Cl)cc2c1CCCC2 [Compound A-3, 3-chloro-5,6,7,8-tetrahydronaphthalene-1-carboxylic acid] | 38
COc1c(Cl)cc2c(c1C(=O)O)SCCC2 [Compound A-31, 6-chloro-7-methoxy-3,4-dihydro-2H-1-benzothiopyran-8-carboxylic acid] | 48
CCc1cc2c(c(C(=O)O)c1F)CCCC2 [Compound A-51, 3-Ethyl-2-fluoro-5,6,7,8-tetrahydronaphthalene-1-carboxylic acid] | 29
COc1c(Cl)cc2c(c1C(=O)O)C1CCC2C1 (stereo not shown) [Compound A-16, 5-Chloro-4-methoxytricyclo[6.2.1.0^2,7]undeca-2(7),3,5-triene-3-carboxylic acid] | 43
O=C(O)c1c2c(cc(Cl)c1OC(F)F)CCCC2 [Compound A-25, 3-Chloro-2-(difluoromethoxy)-5,6,7,8-tetrahydronaphthalene-1-carboxylic acid] | 43
O=C(O)c1c(Cl)c(F)cc2c1N(Cc1ccccc1)CCC2 [Compound A-74, 1-Benzyl-7-chloro-6-fluoro-1,2,3,4-tetrahydro-8-quinolinecarboxylic acid] | 11
O=C(O)c1c(F)c(Cl)cc2c1SCCC2 [Compound A-38, 6-Chloro-7-fluoro-3,4-dihydro-2H-1-benzothiopyran-8-carboxylic acid] | 48
Cc1c(F)cc2c(c1C(=O)O)CCCC2 [Compound A-52, 3-Fluoro-2-methyl-5,6,7,8-tetrahydronaphthalene-1-carboxylic acid] | 18
CN1CCCc2cc(Cl)c(F)c(C(=O)O)c21 [Compound A-40, 6-Chloro-7-fluoro-1-methyl-1,2,3,4-tetrahydroquinoline-8-carboxylic acid] | 39
O=C(O)c1c(F)c(Cl)cc2c1CCCS2 [Compound A-65, 7-chloro-6-fluoro-3,4-dihydro-2H-1-benzothiopyran-5-carboxylic acid] | 49
O=C(O)c1c(F)c(Cl)cc2c1NCCC2 [Compound A-41, 6-Chloro-7-fluoro-1,2,3,4-tetrahydroquinoline-8-carboxylic acid] | 49
O=C(O)c1c(F)c(Cl)cc2c1N(Cc1ccccc1)CCC2 [Compound A-71, 1-Benzyl-6-chloro-7-fluoro-1,2,3,4-tetrahydro-8-quinolinecarboxylic acid] | 23
COc1c(Cl)cc2c(c1C(=O)O)CCCCC2 [Compound A-22, 3-Chloro-2-methoxy-6,7,8,9-tetrahydro-5H-benzo[7]annulene-1-carboxylic acid] | 33
COc1c(Cl)cc2c(c1C(=O)O)CCCC2(F)F [Compound A-73, 3-Chloro-5,5-difluoro-2-methoxy-5,6,7,8-tetrahydro-1-naphthoic acid] | 23
C=Cc1c(Cl)cc2c(c1C(=O)O)CCCC2 [Compound A-35, 3-Chloro-2-ethenyl-5,6,7,8-tetrahydronaphthalene-1-carboxylic acid] | 16
Cc1cc2c(c(C(=O)O)c1F)CCCC2 [Compound A-49, 2-Fluoro-3-methyl-5,6,7,8-tetrahydronaphthalene-1-carboxylic acid] | 40

Same assay, conditions: 40 min, 50 μM of test compound, after 40 mins of compound exposure, tubocurarine (115 nM) for 90 minutes, read-out: Point increase (%): percentage increase of initial force that was restored

SMILES | activation at 50 µM [%]
Cc1cc2c(c(C(=O)O)c1F)OCCC2 [Compound A-50, 7-fluoro-6-methyl-3,4-dihydro-2H-1-benzopyran-8-carboxylic acid] | 51
CSc1c(Cl)cc2c(c1C(=O)O)CCC2 [Compound A-23, 6-Chloro-5-(methylsulfanyl)-2,3-dihydro-1H-indene-4-carboxylic acid] | 44
Cc1c(Cl)cc2c(c1C(=O)O)OCCC2 [Compound A-14, 6-Chloro-7-methyl-3,4-dihydro-2H-1-benzopyran-8-carboxylic acid] | 39
O=C(O)c1c(F)c(F)cc2c1SCCC2 [Compound A-42, 6,7-difluoro-3,4-dihydro-2H-1-benzothiopyran-8-carboxylic acid] | 47
COc1c(Cl)cc2c(c1C(=O)O)C1CCC2CC1 [Compound A-29, 5-Chloro-4-methoxytricyclo[6.2.2.0^2,7]dodeca-2,4,6-triene-3-carboxylic acid] | 42
Cc1cc2c(c(C(=O)O)c1Cl)CCCCC2 [Compound A-34, 2-chloro-3-methyl-6,7,8,9-tetrahydro-5H-benzo[7]annulene-1-carboxylic acid] | 20
O=C(O)c1c(F)c(Cl)cc2c1OCC2 [Compound A-43, 5-Chloro-6-fluoro-2,3-dihydro-1-benzofuran-7-carboxylic acid] | 25
